Where a name gives a salt, the structure may show the parent alone. Read-outs that look alike come from different tables or passages of the source.
Experiments:
KMS.12.BM cells = assay: KMS.12.BM cell viability assay (Cell Titer-GLO, ATP quantitation); format: cell-based; settings: KMS.12.BM human myeloma cells, 3 days, concentration required for 50% cell death, read-out: KMS cellular IC50
Method: KMS.12.BM cell line (human myeloma) was purchased from JCRB (Osaka, Japan) and maintained in RPMI with 10% FBS culture medium. To measure the cytotoxic activity of the compounds through ATP quantitation, the KMS.12.BM cells are plated in the RPMI culture medium at 5000 cells/well/per 100 μL into a 96-well polystyrene clear black tissue culture plate (Greiner-bio-one through VWR, NJ), in the presence or absence of a concentration range of test compounds. After 3 days, […] Cell Titer-GLO Luminescent (Promega, Madison, Wis.) cell culture agent is added to each well for 10 minutes at room temperature to stabilize the luminescent signal. This determines the number of viable cells in culture based on quantitation of the ATP present, which signals the presence of metabolically active cells. Luminescence is measured with the Top Count 384 (Packard Bioscience through Perkin Elmer, Boston, Mass.). […] IC50 data for the Examples is presented in Table 4 as determined by Assay B1.

BRD4-BD2 = BRD4-BD2 (Homo sapiens (Human), UniProt O60885); assay: BRD4 AlphaScreen assay, BRD4-BD2; format: binding; settings: biotin-labeled tetra-acetylated histone H4 peptide, 75 min, room temperature, read-out: BRD4 BD-2 enzyme IC50
Procedure, shortened: (§1)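 Bromodomain–H4Ac4 peptide (50 nM) proximity assay; BD1 at 3.8 nM, BD2 at 20 nM. Reaction 75 min RT, bead detection 75 min in the dark, IC50 by dose-response fit.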

BRD4-BD1 = BRD4-BD1 (Homo sapiens (Human), UniProt O60885); assay: BRD4 AlphaScreen assay, BRD4-BD1; format: binding; settings: biotin-labeled tetra-acetylated histone H4 peptide, 75 min, room temperature, read-out: BRD4 BD-1 enzyme IC50
Procedure, shortened: as §1

Row | SMILES | IC50 (KMS.12.BM cells) [nM] | IC50 (BRD4-BD2) [nM] | IC50 (BRD4-BD1) [nM] | IC50 (KMS.12.BM cells; 72 h) [nM]
1 | Cc1cc2c(cc(N[C@@H]3CCN(C)[C@H](C)C3)c3nnc(C)n32)n1Cc1ccccc1 (mixture of isomers) [Example 224, 6-Benzyl-N-[(2S,4S)-1,2-dimethylpiperidin-4-yl]-1,7-dimethyl-6H-pyrrolo[2,3-e][1,2,4]triazolo[4,3-a]pyridin-4-amine and 6-Benzyl-N-[(2R,4R)-1,2-dimethylpiperidin-4-yl]-1,7-dimethyl-6H-pyrrolo[2,3-e][1,2,4]triazolo[4,3-a]pyridin-4-amine] | ≤ 1000 |  |  | 
2 | Cc1nnc2ccc3c(cc(-c4cc[nH]n4)n3Cc3cccc(CN4CCC4)c3)n12 [Example 182, 6-[3-(Azetidin-1-ylmethyl)benzyl]-1-methyl-7-(1H-pyrazol-3-yl)-6H-pyrrolo[2,3-e][1,2,4]triazolo[4,3-a]pyridine tris(trifluoroacetate) Salt] |  | ≤ 100 | ≤ 100 | ≤ 1000
3 | Cc1cc2c(cc(Nc3ncc[nH]3)c3nnc(C)n32)n1Cc1ccccc1 [Example 253, 6-Benzyl-N-(1H-imidazol-2-yl)-1,7-dimethyl-6H-pyrrolo[2,3-e][1,2,4]triazolo[4,3-a]pyridin-4-amine] |  | ≤ 100 | ≤ 100 | 
4 | Cc1cc2c(cc(NC(N)=O)c3nnc(C)n32)n1Cc1c(F)cccc1F [Example 254, 1-(6-(2,6-Difluorobenzyl)-1,7-dimethyl-6H-pyrrolo[2,3-e][1,2,4]triazolo[4,3-a]pyridin-4-yl)urea] |  | ≤ 100 | ≤ 100 | 
5 | Cc1cc2c(cc(Nc3ccncc3)c3nnc(C)n32)n1Cc1ccccc1 [Example 255, 6-Benzyl-1,7-dimethyl-N-(pyridin-4-yl)-6H-pyrrolo[2,3-e][1,2,4]triazolo[4,3-a]pyridin-4-amine] |  | ≤ 100 | 100 to 1000 | 
6 | Cc1cc2c(cc(Nc3cccnc3)c3nnc(C)n32)n1Cc1ccccc1 [Example 256, 6-Benzyl-1,7-dimethyl-N-(pyridin-3-yl)-6H-pyrrolo[2,3-e][1,2,4]triazolo[4,3-a]pyridin-4-amine] |  | ≤ 100 | ≤ 100 | 
7 | Cc1cc2c(cc(NCCCN)c3nnc(C)n32)n1Cc1ccccc1 [Example 257, N1-(6-Benzyl-1,7-dimethyl-6H-pyrrolo[2,3-e][1,2,4]triazolo[4,3-a]pyridin-4-yl)propane-1,3-diamine] |  | ≤ 100 | ≤ 100 | 
8 | Cc1cc2c(cc(NCCN)c3nnc(C)n32)n1Cc1ccccc1 [Example 258, N1-(6-benzyl-1,7-dimethyl-6H-pyrrolo[2,3-e][1,2,4]triazolo[4,3-a]pyridin-4-yl)ethane-1,2-diamine] |  | ≤ 100 | ≤ 100 | 
9 | CCNc1cc2c(cc(C)n2Cc2ccccc2)n2c(C)nnc12 [Example 259, 6-Benzyl-N-ethyl-1,7-dimethyl-6H-pyrrolo[2,3-e][1,2,4]triazolo[4,3-a]pyridin-4-amine] |  | ≤ 100 | ≤ 100 | 
10 | Cc1cc2c(cc(Nc3ccccc3)c3nnc(C)n32)n1Cc1ccccc1 [Example 260, 6-Benzyl-1,7-dimethyl-N-phenyl-6H-pyrrolo[2,3-e][1,2,4]triazolo[4,3-a]pyridin-4-amine] |  | ≤ 100 | ≤ 100 | 
11 | CNc1cc2c(cc(C)n2Cc2ccccc2)n2c(C)nnc12 [Example 261, 6-Benzyl-N,1,7-trimethyl-6H-pyrrolo[2,3-e][1,2,4]triazolo[4,3-a]pyridin-4-amine] |  | ≤ 100 | ≤ 100 | 
12 | CCCNc1cc2c(cc(C)n2Cc2ccccc2)n2c(C)nnc12 [Example 262, 6-Benzyl-N-propyl-1,7-dimethyl-6H-pyrrolo[2,3-e][1,2,4]triazolo[4,3-a]pyridin-4-amine] |  | ≤ 100 | ≤ 100 | 
13 | Cc1cc2c(cc(NC(C)C)c3nnc(C)n32)n1Cc1ccccc1 [Example 263, 6-Benzyl-N-isopropyl-1,7-dimethyl-6H-pyrrolo[2,3-e][1,2,4]triazolo[4,3-a]pyridin-4-amine] |  | ≤ 100 | ≤ 100 | 
14 | COc1cc2c(cc(C)n2Cc2ccccc2)n2c(C)nnc12 [Example 264, 6-Benzyl-4-methoxy-1,7-dimethyl-6H-pyrrolo[2,3-e][1,2,4]triazolo[4,3-a]pyridine] |  | 100 to 1000 | 100 to 1000 | 
15 | CC(=O)Nc1cc2c(cc(C)n2Cc2ccccc2)n2c(C)nnc12 [Example 266, N-(6-Benzyl-1,7-dimethyl-6H-pyrrolo[2,3-e][1,2,4]triazolo[4,3-a]pyridin-4-yl)acetamide] |  | ≤ 100 | ≤ 100 | 
16 | CCCC(=O)Nc1cc2c(cc(C)n2Cc2ccccc2)n2c(C)nnc12 [Example 267, N-(6-Benzyl-1,7-dimethyl-6H-pyrrolo[2,3-e][1,2,4]triazolo[4,3-a]pyridin-4-yl)butyramide] |  | ≤ 100 | 100 to 1000 | 
17 | CCC(=O)Nc1cc2c(cc(C)n2Cc2ccccc2)n2c(C)nnc12 [Example 268, N-(6-Benzyl-1,7-dimethyl-6H-pyrrolo[2,3-e][1,2,4]triazolo[4,3-a]pyridin-4-yl)propionamide] |  | ≤ 100 | ≤ 100 | 
18 | Cc1cc2c(cc(NC(=O)C3CC3)c3nnc(C)n32)n1Cc1ccccc1 [Example 269, N-(6-Benzyl-1,7-dimethyl-6H-pyrrolo[2,3-e][1,2,4]triazolo[4,3-a]pyridin-4-yl)cyclopropanecarboxamide] |  | ≤ 100 | ≤ 100 | 
19 | Cc1cc2c(cc(NC(=O)C(C)C)c3nnc(C)n32)n1Cc1ccccc1 [Example 270, N-(6-Benzyl-1,7-dimethyl-6H-pyrrolo[2,3-e][1,2,4]triazolo[4,3-a]pyridin-4-yl)isobutyramide] |  | ≤ 100 | ≤ 100 | 
20 | Cc1cc2c(cc(NS(C)(=O)=O)c3nnc(C)n32)n1Cc1ccccc1 [Example 271, N-(6-Benzyl-1,7-dimethyl-6H-pyrrolo[2,3-e][1,2,4]triazolo[4,3-a]pyridin-4-yl)methanesulfonamide] |  | ≤ 100 | 100 to 1000 | 
21 | COC(=O)Nc1cc2c(cc(C)n2Cc2ccccc2)n2c(C)nnc12 [Example 272, Methyl 6-benzyl-1,7-dimethyl-6H-pyrrolo[2,3-e][1,2,4]triazolo[4,3-a]pyridin-4-ylcarbamate] |  | ≤ 100 | ≤ 100 | 
